Assays:
[1] = target: Human immunodeficiency virus type 1 reverse transcriptase (Human immunodeficiency virus 1, UniProt Q72547); assay: Compound was evaluated for enzymatic inhibitory activity against recombinant HIV reverse transcriptase
[2] = Compound was evaluated for cytotoxic activity against peripheral blood mononuclear cells using microculture tetrazolium assay; type: functional; conditions: Homo sapiens
[3] = Compound was evaluated for inhibition of p24 production in HIV infected peripheral blood mononuclear cells; type: functional; conditions: Homo sapiens

Structure (SMILES) | IC50 [1] [µM] | IC50 [2] [µM] | IC50 [3] [µM]
CSCSc1nc(O)c(C(C)C)c(Cc2ccccc2)n1 | 6.1 | > 100 | < 0.001
CCOCn1c(Cc2ccccc2)c(C(C)C)c(=O)[nH]c1=O [EMIVIRINE] | – | > 100 | –
CSCSc1nc(O)c(C)c(Cc2ccccc2)n1 | 18.8 | > 100 | 4.5
CCc1c(O)nc(SCSC)nc1Cc1ccccc1 | 9.7 | > 100 | 0.8
Cc1cn([C@H]2C[C@H](N=[N+]=[N-])[C@@H](CO)O2)c(=O)[nH]c1=O [ZIDOVUDINE] | > 100 | 100 | 0.004
CSCSc1nc(O)c(C(C)C)c(Cc2cc(C)cc(C)c2)n1 | 4.8 | > 100 | 0.01

Source: ChEMBL document CHEMBL1130832, “5-Alkyl-2-[(methylthiomethyl)thio]-6-(benzyl)-pyrimidin-4-(1H)-ones as potent non-nucleoside reverse transcriptase inhibitors of S-DABO series” (Bioorg Med Chem Lett, 1998)
